Values quoted from earlier work, collected in patent US20050142194A1, “Composition comprising CS” (ALTERGON S.A., priority 2003, published 2005).

Tests used:
[1] = general statement of the prior art part
pepsin = settings: prior art statement, middle of the twentieth century

Substance: chondroitin sulfate
- solubility in water [1]: poorly soluble in water
- action on the proteolytic activity of pepsin (pepsin): clear inhibitory action

Substance: sodium chondroitin sulfate
- solubility in water [1]: poorly soluble in water
